{"source": "ChEMBL document CHEMBL1124029", "about": "“Novel DNA groove binding alkylators: design, synthesis, and biological evaluation” (1988)"}
{"test_system": "Vaccinia virus", "assay": "Minimum inhibitory concentration required to reduce virus induced cytopathogenicity by 50% against vaccinia virus in rabbit primary kidney cell cultures", "type": "functional", "details": "Orthopoxvirus vaccinia", "units": {"MIC": "µg/mL"}}
{"compound": "Cl.Cn1cc(NC(=O)c2cc(NC(=O)C(Cl)(Cl)Cl)cn2C)cc1C(=O)NCCC(=N)N", "MIC": "> 100"}
{"compound": "Cl.Cn1cc(NC(=O)c2cc(NC(=O)CCl)cn2C)cc1C(=O)NCCC(=N)N", "MIC": 10}
{"compound": "Cl.Cn1cc(NC(=O)c2cc(NC(=O)CF)cn2C)cc1C(=O)NCCC(=N)N", "MIC": 7}
{"compound": "Cl.Cn1cc(NC(=O)c2cc(NC(=O)CCCCl)cn2C)cc1C(=O)NCCC(=N)N", "MIC": 20}
{"compound": "Cl.Cl.Cn1cc(NC(=O)c2cc(NC(=O)c3cc(NC=O)cn3C)cn2C)cc1C(=O)NCCC(=N)N", "MIC": 0.2}
{"compound": "Cl.Cn1cc(NC(=O)c2cc(NC(=O)C3CC3)cn2C)cc1C(=O)NCCC(=N)N", "MIC": "> 100"}
{"compound": "CC[N+](CC)(CC)CC.Cn1cc(NC(=O)c2cc(NC(=O)C(Cl)Cl)cn2C)cc1C(=O)NCCC(=N)N.O=S(=O)([O-])O", "MIC": 20}
{"compound": "Cl.Cl.Cn1cc(NC(=O)c2cc(NC(=O)CNC(=N)N)cn2C)cc1C(=O)NCCC(=N)N", "note": "[CONGOCIDINE]", "MIC": 2}
